ChEMBL document CHEMBL5260845, “Flavone-based arylamides as potential anticancers: Design, synthesis and in vitro cell-based/cell-free evaluations” (2020)
Active and inactive are the calls of the source. The rule behind the calls is not given here.

What was measured:
[1] = test system: HL-60; assay: Antiproliferative activity against human HL-60 cells assessed as cell growth inhibition at 10 uM by SRB assay relative to control; assay type: functional
[2] = test system: U-251; assay: Antiproliferative activity against human U-251 cells assessed as cell growth inhibition at 10 uM by SRB assay relative to control; assay type: functional
[3] = test system: Breast carcinoma cell; assay: Antiproliferative activity against human breast cancer cells assessed as cell growth inhibition at 10 uM by SRB assay relative to control; assay type: functional; conditions: pooled result: one value given for 3 cell lines, strains, targets or settings
[4] = test system: UACC-62; assay: Antiproliferative activity against human UACC-62 cells assessed as cell growth inhibition at 10 uM by SRB assay relative to control; assay type: functional
[5] = Antiproliferative activity against human colon cancer cells assessed as cell growth inhibition at 10 uM by SRB assay relative to control; assay type: functional; conditions: Colon carcinoma cell
[6] = test system: NCI-H460; assay: Antiproliferative activity against human NCI-H460 cells assessed as cell growth inhibition at 10 uM by SRB assay; assay type: functional, cell-based
[7] = test system: NCI-H322M; assay: Antiproliferative activity against human NCI-H322M cells assessed as cell growth inhibition at 10 uM by SRB assay; assay type: functional, cell-based
[8] = test system: SF-295; assay: Antiproliferative activity against human SF-295 cells assessed as cell growth inhibition at 10 uM by SRB assay relative to control; assay type: functional
[9] = test system: Melanoma cell line; assay: Antiproliferative activity against human melanoma cells assessed as cell growth inhibition at 10 uM by SRB assay relative to control; assay type: functional
[10] = test system: HOP-92; assay: Antiproliferative activity against human HOP-92 cells assessed as cell growth inhibition at 10 uM by SRB assay; assay type: functional, cell-based
[11] = test system: MDA-MB-435; assay: Antiproliferative activity against human MDA-MB-435 cells assessed as cell growth inhibition at 10 uM by SRB assay relative to control; assay type: functional
[12] = test system: HT-29; assay: Antiproliferative activity against human HT-29 cells assessed as cell growth inhibition at 10 uM by SRB assay; assay type: functional, cell-based
[13] = test system: Malme-3M; assay: Antiproliferative activity against human Malme-3M cells assessed as cell growth inhibition at 10 uM by SRB assay relative to control; assay type: functional
[14] = test system: NCI-H23; assay: Antiproliferative activity against human NCI-H23 cells assessed as cell growth inhibition at 10 uM by SRB assay; assay type: functional
[15] = test system: HCC 2998; assay: Antiproliferative activity against human HCC 2998 cells assessed as cell growth inhibition at 10 uM by SRB assay; assay type: functional, cell-based
[16] = test system: CAKI-1; assay: Antiproliferative activity against human CAKI-1 cells assessed as inhibition of cell growth at 10 uM by SRB assay relative to control; assay type: functional
[17] = test system: HCC 2998; assay: Antiproliferative activity against human HCC 2998 cells assessed as cell growth inhibition at 10 uM by SRB assay relative to control; assay type: functional
[18] = test system: EKVX; assay: Antiproliferative activity against human EKVX cells assessed as cell growth inhibition at 10 uM by SRB assay; assay type: functional
[19] = test system: LOX IMVI; assay: Antiproliferative activity against human LOX IMVI cells assessed as cell growth inhibition at 10 uM by SRB assay relative to control; assay type: functional
[20] = test system: OVCAR-8; assay: Antiproliferative activity against human OVCAR-8 cells assessed as cell growth inhibition at 10 uM by SRB assay relative to control; assay type: functional
[21] = test system: NCI-H226; assay: Antiproliferative activity against human NCI-H226 cells assessed as cell growth inhibition at 10 uM by SRB assay; assay type: functional
[22] = test system: OVCAR-3; assay: Antiproliferative activity against human OVCAR-3 cells assessed as cell growth inhibition at 10 uM by SRB assay relative to control; assay type: functional; conditions: pooled result: one value given for 2 cell lines, strains, targets or settings
[23] = test system: SN12C; assay: Antiproliferative activity against human SN12C cells assessed as inhibition of cell growth at 10 uM by SRB assay relative to control; assay type: functional
[24] = test system: COLO 205; assay: Antiproliferative activity against human COLO 205 cells assessed as cell growth inhibition at 10 uM by SRB assay relative to control; assay type: functional
[25] = test system: RPMI-8226; assay: Antiproliferative activity against human RPMI-8226 cells assessed as cell growth inhibition at 10 uM by SRB assay; assay type: functional, cell-based
[26] = test system: SK-MEL-5; assay: Antiproliferative activity against human SK-MEL-5 cells assessed as cell growth inhibition at 10 uM by SRB assay relative to control; assay type: functional
[27] = test system: 786-0; assay: Antiproliferative activity against human 786-0 cells assessed as inhibition of cell growth at 10 uM by SRB assay relative to control; assay type: functional
[28] = test system: UACC-257; assay: Antiproliferative activity against human UACC-257 cells assessed as cell growth inhibition at 10 uM by SRB assay relative to control; assay type: functional
[29] = test system: CCRF-CEM; assay: Antiproliferative activity against human CCRF-CEM cells assessed as cell growth inhibition at 10 uM by SRB assay; assay type: functional, cell-based
[30] = test system: SF-539; assay: Antiproliferative activity against human SF-539 cells assessed as cell growth inhibition at 10 uM by SRB assay relative to control; assay type: functional
[31] = test system: ACHN; assay: Antiproliferative activity against human ACHN cells assessed as inhibition of cell growth at 10 uM by SRB assay relative to control; assay type: functional; conditions: pooled result: one value given for 2 cell lines, strains, targets or settings
[32] = test system: MOLT-4; assay: Antiproliferative activity against human MOLT-4 cells assessed as cell growth inhibition at 10 uM by SRB assay; assay type: functional, cell-based
[33] = test system: Renal cancer cell line; assay: Antiproliferative activity against human renal cancer cells assessed as cell growth inhibition at 10 uM by SRB assay relative to control; assay type: functional
[34] = test system: NCI-H522; assay: Antiproliferative activity against human NCI-H522 cells assessed as cell growth inhibition at 10 uM by SRB assay; assay type: functional, cell-based
[35] = test system: SW-620; assay: Antiproliferative activity against human SW620 cells assessed as cell growth inhibition at 10 uM by SRB assay; assay type: functional, cell-based
[36] = Antiproliferative activity against human brain cancer cells assessed as cell growth inhibition at 10 uM by SRB assay relative to control; assay type: functional
[37] = test system: K562; assay: Antiproliferative activity against human K562 cells assessed as cell growth inhibition at 10 uM by SRB assay; assay type: functional, cell-based
[38] = test system: RXF 393; assay: Antiproliferative activity against human RXF 393 cells assessed as inhibition of cell growth at 10 uM by SRB assay relative to control; assay type: functional
[39] = test system: NCI-H522; assay: Antiproliferative activity against human NCI-H522 cells assessed as cell growth inhibition at 10 uM by SRB assay relative to control; assay type: functional
[40] = test system: SK-MEL-28; assay: Antiproliferative activity against human SK-MEL-28 cells assessed as cell growth inhibition at 10 uM by SRB assay relative to control; assay type: functional
[41] = test system: IGROV-1; assay: Antiproliferative activity against human IGROV-1 cells assessed as cell growth inhibition at 10 uM by SRB assay relative to control; assay type: functional
[42] = test system: COLO 205; assay: Antiproliferative activity against human COLO 205 cells assessed as cell growth inhibition at 10 uM by SRB assay; assay type: functional, cell-based
[43] = test system: RPMI-8226; assay: Antiproliferative activity against human RPMI-8226 cells assessed as cell growth inhibition at 10 uM by SRB assay relative to control; assay type: functional
[44] = test system: DU-145; assay: Antiproliferative activity against human DU-145 cells assessed as inhibition of cell growth at 10 uM by SRB assay; assay type: functional, cell-based

COc1cc2oc(-c3cccc(C(=O)Nc4ccc(C)cc4)c3)cc(=O)c2c(OC)c1OC
inhibition at 10 µM [1]: 92.7% | inhibition at 10 µM [2]: > 50% | inhibition at 10 µM [3]: 53.4% | inhibition at 10 µM [4]: 108% | inhibition at 10 µM [5]: 72.5% | inhibition [6]: Active | inhibition [7]: Active | inhibition at 10 µM [8]: 147% | inhibition at 10 µM [9]: 95.9% | inhibition [10]: Active | inhibition at 10 µM [11]: 70.1% | inhibition [12]: Active | inhibition at 10 µM [13]: 70.1% | inhibition [14]: Active | inhibition [15]: Active | inhibition at 10 µM [16]: 97.8% | inhibition at 10 µM [17]: 50.1% | inhibition [18]: Active | inhibition at 10 µM [19]: 108% | inhibition at 10 µM [20]: 51.8% | inhibition [21]: Active | inhibition at 10 µM [22]: 51.8% | inhibition at 10 µM [23]: 55.7% | inhibition at 10 µM [24]: 82% | inhibition [25]: Active | inhibition at 10 µM [26]: 108% | inhibition at 10 µM [27]: 55.7% | inhibition at 10 µM [28]: 70.1% | inhibition [29]: Active | inhibition at 10 µM [30]: > 50% | inhibition at 10 µM [31]: 55.7% | inhibition [32]: Active | inhibition at 10 µM [33]: 72.5% | inhibition [34]: Active | inhibition [35]: Active | inhibition at 10 µM [36]: 64.7% | inhibition [37]: Active | inhibition [38]: Active | inhibition at 10 µM [39]: 93.3% | inhibition at 10 µM [40]: 92.9% | inhibition at 10 µM [41]: 51.8% | inhibition [42]: Active | inhibition at 10 µM [43]: 82.6% | inhibition [44]: Active

COc1cc2oc(-c3cccc(C(=O)Nc4ccc(Cl)cc4)c3)cc(=O)c2c(OC)c1OC
inhibition at 10 µM [1]: 111% | inhibition at 10 µM [2]: > 50% | inhibition at 10 µM [3]: 61.5% | inhibition at 10 µM [4]: 107% | inhibition at 10 µM [5]: 61.5% | inhibition [6]: Active | inhibition [7]: Active | inhibition at 10 µM [8]: 142% | inhibition at 10 µM [9]: 102% | inhibition [10]: Active | inhibition at 10 µM [11]: 62.5% | inhibition [12]: Active | inhibition at 10 µM [13]: 85.8% | inhibition [14]: Active | inhibition [15]: Active | inhibition at 10 µM [16]: 91.8% | inhibition at 10 µM [17]: 77.4% | inhibition [18]: Active | inhibition at 10 µM [19]: 97.8% | inhibition at 10 µM [20]: 56.9% | inhibition [21]: Active | inhibition at 10 µM [22]: 56.9% | inhibition at 10 µM [23]: 61.4% | inhibition at 10 µM [24]: 98.3% | inhibition [25]: Active | inhibition at 10 µM [26]: 107% | inhibition at 10 µM [27]: 88% | inhibition at 10 µM [28]: 107% | inhibition [29]: Active | inhibition at 10 µM [30]: > 50% | inhibition at 10 µM [31]: 61.4% | inhibition [32]: Active | inhibition at 10 µM [33]: 82.9% | inhibition [34]: Active | inhibition [35]: Active | inhibition at 10 µM [36]: 61.5% | inhibition [37]: Active | inhibition at 10 µM [38]: 129% | inhibition at 10 µM [39]: 74.8% | inhibition at 10 µM [40]: 107% | inhibition at 10 µM [41]: 56.9% | inhibition [42]: Active | inhibition at 10 µM [43]: 82.6% | inhibition [44]: Active
